“And” between values parts separate entries of the source, which are not always exact repeats. Equal values may be shown once. ± gives the uncertainty stated by the source.
Test: xn = mol fraction of the nth substance listed

CCO + CC[n+]1ccn(CCOC)c1.O=S(=O)([N-]S(=O)(=O)C(F)(F)F)C(F)(F)F
100 kPa, x2 = 0
Details	viscosity [mPa·s]
288.15 K	1.334 ± 0.014
293.15 K	1.202 ± 0.012
298.15 K	1.111 ± 0.011
303.15 K	1.003 ± 0.01
308.15 K	0.907 ± 0.009
313.15 K	0.83 ± 0.008
318.15 K	0.76 ± 0.008

CCC=C[n+]1ccn(C)c1C.O=[N+]([O-])c1cn[n-]c1 + COCCOCCOCCOCCOC
100 kPa
Details	viscosity [mPa·s]
278.15 K, x1 = 0.601	267 ± 12
278.15 K, x1 = 0.952	4300 ± 400
283.15 K, x1 = 0.9	1510 ± 110
288.15 K, x1 = 0.9	864 ± 54
288.15 K, x1 = 0.952	1210 ± 84
293.15 K, x1 = 0.601	87 ± 2
298.15 K, x1 = 0.701	121 ± 3
298.15 K, x1 = 0.952	439 ± 21
303.15 K, x1 = 0.801	138 ± 4
313.15 K, x1 = 0.9	117 ± 3
323.15 K, x1 = 0.952	81 ± 2

CCCCCCCC[P+](CC)(CC)CC.Cc1ncc([N+](=O)[O-])[n-]1 + COCCOCCOCCOCCOC
viscosity [mPa·s], 100 kPa
Details	278.15 K	283.15 K	288.15 K	293.15 K	298.15 K	303.15 K	308.15 K	313.15 K	318.15 K	323.15 K
x2 = 0	3660 ± 320	2240 ± 180	1410 ± 99	920 ± 57	623 ± 33	435 ± 20	313 ± 12	231 ± 8	174 ± 5	135 ± 3
x2 = 0.036	2730 ± 230	1700 ± 130	1090 ± 71	722 ± 41	495 ± 24	350 ± 15	255 ± 9	189 ± 6	145 ± 4	113 ± 2
x2 = 0.067	1990 ± 150	1270 ± 86	829 ± 49	559 ± 29	390 ± 17	280 ± 11	206 ± 7	155 ± 4	120 ± 3	95 ± 2
x2 = 0.115	1470 ± 100	955 ± 59	636 ± 34	438 ± 20	310 ± 12	227 ± 8	170 ± 5	130 ± 3	101 ± 2	81 ± 1
x2 = 0.233	651 ± 36	446 ± 21	311 ± 12	223 ± 7	166 ± 5	126 ± 3	98 ± 2	78 ± 1	62 ± 1	–
x2 = 0.3	375 ± 17	262 ± 10	187 ± 6	137 ± 3	103 ± 2	80 ± 1	64 ± 1	51 ± 1	–	–
x2 = 0.399	200 ± 7	145 ± 4	107 ± 2	81 ± 1	64 ± 1	50 ± 1	–	–	–	–
x2 = 0.5	113 ± 3	86 ± 2	66 ± 1	51 ± 1	–	–	–	–	–	–
x2 = 0.598	62 ± 1	–	–	–	–	–	–	–	–	–

CCCCCC[n+]1ccn(C)c1C.O=S(=O)([N-]S(=O)(=O)C(F)(F)F)C(F)(F)F + COCCOCCOCCOCCOC
viscosity [mPa·s], 100 kPa
Details	293.15 K	298.15 K	308.15 K
x2 = 0	–	129 ± 4	–
x2 = 0.102	135 ± 4	103 ± 2	64 ± 1
x2 = 0.306	66 ± 1	51 ± 1	–

CCO + COP(=O)([O-])OC.C[N+]1(CCO)CCCC1
Details	viscosity [mPa·s]
298.15 K, 100 kPa, x2 = 0	1.08 ± 0.07

CCO + COP(=O)([O-])OC.Cn1cc[n+](C)c1
100 kPa, x2 = 0
Details	viscosity [mPa·s]
298.15 K	1.08 ± 0.01
308.15 K	0.89 ± 0.01
328.15 K	0.646 ± 0.009

CCO + CS(=O)(=O)[O-].C[N+](C)(CCO)CCO
101 kPa, x2 = 0
Details	viscosity [mPa·s]
298.15 K	1.102 ± 0.067
303.15 K	1.002 ± 0.061
308.15 K	0.915 ± 0.055
313.15 K	0.837 ± 0.051
318.15 K	0.768 ± 0.046
323.15 K	0.706 ± 0.043

CC(=O)[O-].CC[NH2+]CC + CS(C)=O
101 kPa
Details	electrical conductivity [S/m]	viscosity [mPa·s]
298.15 K, x1 = 0.0079	0.066 ± 0.002	–
298.15 K, x1 = 0.0285	0.157 ± 0.005	–
298.15 K, x1 = 0.0475	0.217 ± 0.007	–
298.15 K, x1 = 0.0697	0.282 ± 0.008	–
298.15 K, x1 = 0.0998	0.348 ± 0.01	–
298.15 K, x1 = 0.1	–	2.99 ± 0.18
298.15 K, x1 = 0.199	–	3.72 ± 0.23
298.15 K, x1 = 0.1997	0.44 ± 0.013	–
298.15 K, x1 = 0.299	–	5.59 ± 0.34
298.15 K, x1 = 0.3011	0.492 ± 0.015	–
298.15 K, x1 = 0.3994	0.531 ± 0.016	–
298.15 K, x1 = 0.4	–	8.01 ± 0.49
298.15 K, x1 = 0.5	–	11.94 ± 0.73
298.15 K, x1 = 0.5008	0.459 ± 0.014	–
298.15 K, x1 = 0.601	–	15.88 ± 0.98
298.15 K, x1 = 0.6022	0.433 ± 0.013	–
298.15 K, x1 = 0.682	–	21.1 ± 1.3
298.15 K, x1 = 0.7005	0.394 ± 0.012	–
298.15 K, x1 = 0.798	–	32.6 ± 2.1
298.15 K, x1 = 0.8019	0.367 ± 0.011	–
298.15 K, x1 = 0.899	–	44.2 ± 2.8
298.15 K, x1 = 0.9017	0.335 ± 0.01	–
298.15 K, x2 = 0.005	–	58.3 ± 3.8
298.15 K, x2 = 0.2023	–	13.67 ± 0.35
298.15 K, x2 = 0.2814	–	12.66 ± 0.33
298.15 K, x2 = 0.5897	–	8.7 ± 0.23
298.15 K, x2 = 0.66	–	7.71 ± 0.2
298.15 K, x2 = 0.7851	–	5.81 ± 0.15
298.15 K, x2 = 0.971	–	2.53 ± 0.07
303.15 K, x2 = 0.0253	–	13.36 ± 0.34
303.15 K, x2 = 0.7253	–	5.92 ± 0.16
303.15 K, x2 = 0.8406	–	4.41 ± 0.12
303.15 K, x2 = 0.9248	–	3.13 ± 0.09
308.15 K, x2 = 0.1535	–	10.52 ± 0.27
308.15 K, x2 = 0.2814	–	9.46 ± 0.25

CC[n+]1ccn(C)c1.CO[PH](=O)[O-] + CS(C)=O
298.1 K, 100 kPa
Details	electrical conductivity
x1 = 0.006	0.01 ± 0.01 S/m
x1 = 0.01	0.13 ± 0.01 S/m
x1 = 0.017	0.37 S/m and 0.45 S/m
x1 = 0.025	0.51 S/m and 0.68 S/m
x1 = 0.044	0.79 ± 0.03 S/m
x1 = 0.059	0.93 ± 0.04 S/m
x1 = 0.078	1.05 ± 0.04 S/m
x1 = 0.123	1.15 ± 0.05 S/m
x1 = 0.188	1.19 ± 0.05 S/m
x1 = 0.267	1.13 ± 0.05 S/m
x1 = 0.335	1.03 ± 0.04 S/m
x1 = 0.453	0.88 ± 0.04 S/m
x1 = 0.585	0.75 ± 0.03 S/m
x1 = 0.763	0.59 ± 0.02 S/m
x1 = 1	0.44 ± 0.02 S/m

From the CheMixHub ionic liquid set
